Measurements as given in article PMC7226534, “[^18F]FET-βAG-TOCA: The Design, Evaluation and Clinical Translation of a Fluorinated Octreotide” (Cancers, 2020).

Assays:
Wistar rats = conditions: in vivo, iv
Method: While adhering to ALARP principles (As Low As Reasonably Practical), a rat dosimetry study was also conducted to enable initial prediction of human Effective Dose. Wistar rats were dosed with a single intravenous injection of [^18F]FET-βAG-TOCA and monitored up to 7 h. Effective Dose for both sexes were estimated at 0.03 mSv/MBq.

rat (HsdHan:WIST strain) = test: GLP single dose intravenous bolus extended acute toxicology study in the rat; format: in vivo; conditions: dose levels 0, 0.25 and 1 mg/kg
Method: Two key studies were conducted to assure regulators of the safety of [^18F]FET-βAG-TOCA prior to first-in-human testing. A Good Laboratory Practice single dose intravenous bolus extended acute toxicology study in the rat (HsdHan^TM:WIST strain) was conducted with both [^19F]FET-βAG-TOCA and the propanyl-βAG-TOCA precursor. Animals were monitored throughout; day 2 (interim) and day 14 (termination) analysis were conducted. Dose levels of 0, 0.25 and 1 mg/kg of either test articles were tolerated in-life with no mortality. There were no effects on food consumption or body weight. Clinical pathology changes were noted but were not consistently seen in both sexes and were not associated with any pathological changes. A No Observed Adverse Effect Level (NOAEL) for both [^19F]FET-βAG-TOCA and propanyl-βAG-TOCA was considered to be 1.0 mg/kg. This study followed ‘approach 1’ given in the ICH M3 (R2) guideline to assess whether a single 50 μg (up to 100 μg) dose of the test article can be given to humans. The study design permitted a safety margin of 1000× the equivalent human dose to be established.

Row | Effective Dose predicted for humans from rat dosimetry (Wistar rats) | Substance | Effects on food consumption or body weight (rat (HsdHan:WIST strain)) | Tolerability / mortality (rat (HsdHan:WIST strain))
1 | 0.03 mSv/MBq | [^18F]fluoroethyltriazole-βAG-TOCA [Compound 7] | – | –
2 | – | propanyl-βAG-TOCA | no effects | no mortality
3 | – | [^19F]FET-βAG-TOCA | no effects | no mortality
